Measured values published in article PMC6021502, “Cannabigerol Action at Cannabinoid CB1 and CB2 Receptors and at CB1–CB2 Heteroreceptor Complexes” (Frontiers in Pharmacology, 2018).

Tests used:
experimental colitis = system: experimental colitis; parameters: method as in Borrelli et al., 2013; conditions: model of inflammatory bowel disease; ref Borrelli et al., 2013; cited from earlier work
CB1R [1] = system: T1, CB1R; test: Overall signalling profile (cAMP, MAPK, β-arrestin, DMR) in HEK-293T cells; format: cell-based, human; conditions: HEK-293T cells expressing CB1R
T1 construct: expressed in transfected cells; host or cells: HEK-293T, transient transfection (PEI)
Description: (§1) HEK-293T cells were grown in DMEM medium (Gibco, Paisley, Scotland, United Kingdom) supplemented with 2 mM L-glutamine, 100 U/mL penicillin/streptomycin, MEM Non-Essential Amino Acids Solution (1/100) and 5% (v/v) heat inactivated Foetal Bovine Serum (FBS) (Invitrogen, Paisley, Scotland, United Kingdom). […] Cells were transiently transfected with the PEI (Polyethylenimine, Sigma, St. Louis, MO, United States) method as previously described ([Medrano et al., 2017]; [Navarro et al., 2018b]) and used for functional assays 48 h later (unless otherwise stated).
(§2) Signaling experiments have been performed as previously described ([Navarro et al., 2010], [2016], [2018b]; [Hinz et al., 2018]). […] Readings were performed after 15 min incubation at 25°C. […] Fluorescence at 665 nm was analyzed in a PHERAstar Flagship microplate reader equipped with an HTRF optical module (BMG Lab Technologies, Offenburg, Germany).
(§3) To determine ERK1/2 phosphorylation, 50,000 HEK-293T cells/well were plated in transparent Deltalab 96-well microplates and kept at the incubator for 24 h. […] 10 μL of each supernatant were placed in white ProxiPlate 384-well microplates and ERK 1/2 phosphorylation was determined using AlphaScreen®SureFire® kit (Perkin Elmer) following the instructions of the supplier and using an EnSpire® Multimode Plate Reader (PerkinElmer, Waltham, MA, United States). […]

CB2R [2] = system: T2, CB2R; test: as above; format: cell-based, human; conditions: HEK-293T cells expressing CB2R
T2 construct: expressed in transfected cells; host or cells: HEK-293T, transient transfection (PEI)
Description: as §1, §2, §3

TRPV1 = system: TRPV1; parameters: method as in De Petrocellis et al., 2011; conditions: ref De Petrocellis et al., 2011; read-out: EC50, agonist of TRPV1; cited from earlier work
macrophages [3] = system: macrophages; parameters: method as in Giacoppo et al., 2017; conditions: in vitro; blocked by AM630, not by SR141716A; ref Giacoppo et al., 2017; cited from earlier work
[4] = system: PPARγ transcriptional activity; parameters: method as in Granja et al., 2012; Nadal et al., 2017; conditions: high concentrations, 10–25 μM range; ref Granja et al., 2012; Nadal et al., 2017; cited from earlier work
[5] = target: T3, CB2R in a CB1–CB2 receptor heteromer context (Homo sapiens, UniProt P34972); test: Homogeneous HTRF competition binding in living HEK-293T cells expressing SNAP-CB2R and CB1R; conditions: 20 nM fluorescent ligand, read-out: Ki, HTRF competition of fluorophore-conjugated CM-157 in the presence of CB1R
T3 construct: host or cells: HEK-293T, transient co-transfection (PEI)
T3 sequence (P34972 whole entry): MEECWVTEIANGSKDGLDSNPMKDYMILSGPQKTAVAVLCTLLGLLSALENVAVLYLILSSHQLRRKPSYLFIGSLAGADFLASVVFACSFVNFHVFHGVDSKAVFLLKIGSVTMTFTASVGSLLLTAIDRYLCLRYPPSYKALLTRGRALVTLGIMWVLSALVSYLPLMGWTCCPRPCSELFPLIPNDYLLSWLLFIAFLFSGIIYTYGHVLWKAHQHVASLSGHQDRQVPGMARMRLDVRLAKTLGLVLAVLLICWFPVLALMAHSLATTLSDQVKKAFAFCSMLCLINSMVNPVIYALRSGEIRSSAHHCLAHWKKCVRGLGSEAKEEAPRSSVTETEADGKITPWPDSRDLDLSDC
T3 sequence (P21554 whole entry partner): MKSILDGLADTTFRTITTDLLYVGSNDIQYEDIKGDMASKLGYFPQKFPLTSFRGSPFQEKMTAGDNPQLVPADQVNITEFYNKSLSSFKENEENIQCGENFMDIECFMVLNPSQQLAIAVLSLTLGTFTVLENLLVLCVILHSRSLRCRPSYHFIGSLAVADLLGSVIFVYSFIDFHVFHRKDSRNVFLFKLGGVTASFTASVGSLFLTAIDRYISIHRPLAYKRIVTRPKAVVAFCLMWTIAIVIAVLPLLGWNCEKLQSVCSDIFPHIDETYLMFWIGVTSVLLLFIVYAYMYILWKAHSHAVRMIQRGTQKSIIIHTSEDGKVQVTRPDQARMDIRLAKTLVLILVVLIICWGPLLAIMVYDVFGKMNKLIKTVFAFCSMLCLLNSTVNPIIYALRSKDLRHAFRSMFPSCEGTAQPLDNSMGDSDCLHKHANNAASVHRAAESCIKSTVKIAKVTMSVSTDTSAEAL

macrophages [6] = system: macrophages; parameters: method as in Borrelli et al., 2013; conditions: ref Borrelli et al., 2013; cited from earlier work
TRPM8 channels = system: TRPM8 channels; parameters: method as in De Petrocellis et al., 2011; conditions: ref De Petrocellis et al., 2011; read-out: IC50, antagonist of TRPM8 channels; cited from earlier work
[7] = system: T4, CB1R and CB2R (CB1–CB2 heteroreceptor complexes); test: ERK1/2 phosphorylation in HEK-293T cells co-expressing both receptors; format: cell-based, human
T4 construct: expressed in transfected cells; host or cells: HEK-293T, transient co-transfection (PEI)
Description: as §1
To determine ERK1/2 phosphorylation, 50,000 HEK-293T cells/well were plated in transparent Deltalab 96-well microplates and kept at the incubator for 24 h. 2 to 4 h before the experiment, the medium was substituted by serum-starved DMEM medium. Then, cells were pre-treated at 25°C for 10 min with vehicle or CBG in serum-starved DMEM medium and stimulated for an additional 7 min with the specific agonists. Cells were then washed twice with cold PBS before addition of lysis buffer (20 min treatment). 10 μL of each supernatant were placed in white ProxiPlate 384-well microplates and ERK 1/2 phosphorylation was determined using AlphaScreen®SureFire® kit (Perkin Elmer) following the instructions of the supplier and using an EnSpire® Multimode Plate Reader (PerkinElmer, Waltham, MA, United States).

CB1R [8] = system: T1, CB1R; test: Label-free dynamic mass redistribution (DMR) in HEK-293T cells; format: cell-based, human
Description: as §1
(§4) Cell mass redistribution induced upon receptor activation was detected by illuminating the underside of a biosensor with polychromatic light and measuring the changes in the wavelength of the reflected monochromatic light. The magnitude of this wavelength shift (in picometers) is directly proportional to the amount of DMR. HEK-293T cells were seeded in 384-well sensor microplates to obtain 70–80% confluent monolayers constituted by approximately 10,000 cells per well. Previous to the assay, cells were washed twice with assay buffer (HBSS with 20 mM HEPES, pH 7.15) and incubated for 2 h with assay-buffer containing 0.1% DMSO (24°C, 30 μL/well). Hereafter, the sensor plate was scanned and a baseline optical signature was recorded for 10 min before adding 10 μL of CBG for 30 min followed by the addition of 10 μL of specific agonists; all test compounds were dissolved in assay buffer. The cell signaling signature was determined using an EnSpire® Multimode Plate Reader (PerkinElmer, Waltham, MA, United States) by a label-free technology. Then, DMR responses were monitored for at least 5,000 s. Results were analyzed using EnSpire Workstation Software v 4.10.

CB2R [9] = system: T2, CB2R; test: as above; format: cell-based, human
Description: as §1, §4

TRPA1 = conditions: ref De Petrocellis et al., cited from earlier work

Which results are given for `CCCCCc1cc(O)c(C/C=C(\C)CCC=C(C)C)c(O)c1` [CBG, cannabigerol]?
Effect on experimental colitis (experimental colitis): reduce the histological and molecular changes of experimental colitis; Pharmacological profile at CB1R (CB1R [1]): poor agonist of CB1R; Pharmacological profile at CB2R (CB2R [2]): partial agonist of the CB2R; EC50 (TRPV1): 1300 nM; Protection of macrophages against oxidative stress (macrophages [3]): protection of macrophages against oxidative stress; Effect on PPARγ transcriptional activity [4]: may enhance the PPARγ transcriptional activity; Ki [5]: 56 nM; Nitrite release from macrophages after LPS stimulation (macrophages [6]): reduce; IC50 (TRPM8 channels): 160 nM; Effect on agonist actions on ERK1/2 phosphorylation ([7]; 100 nM CBG pretreatment, cells co-expressing CB1R and CB2R): negligible except for the negative modulation of the ACEA effect on ERK1/2 phosphorylation; Effect on ERK1/2 phosphorylation ([7]; CBG alone, dose-effect, cells expressing CB1R and CB2R): negative cross-talk was still evident; Effect on agonist-induced DMR (CB1R [8]; 100 nM or 1 μM CBG, 100 nM AEA or ACEA, CB1R): reduced the effect of the agonists; DMR signal (CB1R [8]; CBG alone, 1 nM to 10 μM, CB1R-expressing cells): slight effect; Effect on AEA and JWH133 effects on label-free DMR (CB2R [9]; 100 nM or 1 μM CBG pretreatment, 100 nM AEA or JWH133, CB2R): reduced the effects of AEA and JWH133; DMR signal (CB2R [9]; CBG alone, 1 nM to 10 μM, CB2R-expressing cells): small and similar to that exerted in CB1R-expressing cells; EC50 values, transient receptor potential channels of ankyrin type-1 (TRPA1; 2008): micromolar range; EC50 (TRPA1; 2011, read-out: EC50, agonist/desensitizer of TRPA1): 700 nM
